What was measured:
HDAC 6 = molecular target: T1, HDAC 6 (Homo sapiens, UniProt Q9UBN7); conditions: cited from earlier work
T1 sequence (Q9UBN7 1-1215): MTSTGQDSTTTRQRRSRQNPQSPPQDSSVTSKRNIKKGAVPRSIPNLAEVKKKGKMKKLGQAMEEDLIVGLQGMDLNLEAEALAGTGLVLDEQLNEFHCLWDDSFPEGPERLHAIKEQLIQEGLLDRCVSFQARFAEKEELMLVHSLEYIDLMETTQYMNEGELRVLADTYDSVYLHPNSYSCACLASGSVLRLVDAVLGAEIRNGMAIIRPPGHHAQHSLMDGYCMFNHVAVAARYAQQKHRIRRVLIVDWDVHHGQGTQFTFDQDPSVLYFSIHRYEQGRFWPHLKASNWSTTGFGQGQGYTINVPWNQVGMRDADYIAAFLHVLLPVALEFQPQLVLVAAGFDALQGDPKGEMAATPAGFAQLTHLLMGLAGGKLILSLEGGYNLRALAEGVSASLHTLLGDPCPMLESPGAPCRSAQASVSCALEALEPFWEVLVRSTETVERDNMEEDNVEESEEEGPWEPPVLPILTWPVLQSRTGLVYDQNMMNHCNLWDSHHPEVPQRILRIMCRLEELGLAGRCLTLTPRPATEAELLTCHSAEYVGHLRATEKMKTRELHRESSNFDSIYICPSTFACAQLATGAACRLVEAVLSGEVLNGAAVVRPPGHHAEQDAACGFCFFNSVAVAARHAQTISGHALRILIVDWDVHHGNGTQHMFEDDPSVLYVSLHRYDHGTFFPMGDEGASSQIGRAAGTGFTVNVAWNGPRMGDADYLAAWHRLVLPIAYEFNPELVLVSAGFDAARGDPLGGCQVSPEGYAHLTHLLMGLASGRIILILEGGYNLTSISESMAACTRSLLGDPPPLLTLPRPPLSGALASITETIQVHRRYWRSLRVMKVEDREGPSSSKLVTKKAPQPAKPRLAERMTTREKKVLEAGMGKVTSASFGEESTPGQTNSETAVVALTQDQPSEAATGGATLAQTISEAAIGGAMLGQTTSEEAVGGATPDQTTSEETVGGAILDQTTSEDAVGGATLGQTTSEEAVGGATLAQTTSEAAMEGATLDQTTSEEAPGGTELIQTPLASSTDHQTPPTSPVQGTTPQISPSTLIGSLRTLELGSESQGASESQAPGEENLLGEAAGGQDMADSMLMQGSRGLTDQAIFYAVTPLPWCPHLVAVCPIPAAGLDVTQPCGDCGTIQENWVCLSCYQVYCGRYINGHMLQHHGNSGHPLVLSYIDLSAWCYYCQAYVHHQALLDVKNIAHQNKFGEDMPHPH

[1] = test system: mantle cell lymphoma, lung cancer and pancreatic cancer xenograft; conditions: lung cancer and pancreatic cancer xenograft murine models; cited from earlier work
[2] = hydroxamic acids such as QTX125; cited from earlier work
[3] = test system: multiple sclerosis mice models; conditions: two different multiple sclerosis mice models; cited from earlier work
[4] = Solubility and stability of QTX125 in aqueous solution (background); assay type: physicochemical
[5] = Pharmacokinetic properties; assay type: in vivo; conditions: compared with other histone deacetylase inhibitors
[6] = Genotoxicity (clastogenicity, aneugenicity); conditions: unlike other histone deacetylase inhibitors
[7] = Photostability in solution (THF and water), HPLC; assay type: physicochemical; conditions: in solution (THF and water), sealed under nitrogen in amber glass bottles; for degradation (in words): up to 171 hours
Procedure: (§1) The method for determining purity by HPLC—used throughout these examples—used the following parameters:
(§2) The photostability of novel crystalline forms of QTX125 was assessed at solid state and in solution. Where ‘forced illumination’ conditions were used, samples were illuminated at 12 Klux/hour and 2.8 UV W/m^2/hour. Samples were stored at a temperature of 30° C. Following incubation, the chemical purity of QTX125 was measured by HPLC.
(§3) The following index is provided to aid navigation of the data presented in Tables 3.1.1 to 3.3.6: • 3.1.x—Assessment of the photostability of QTX125 Form 2. • 3.2.x—Assessment of the photostability of amorphous QTX125. • 3.3.x—Assessment of the photostability of the QTX125 1:2 L-Lysine adduct. • 3.x.1—Samples (at solid state) stored in unsealed clear glass bottles, subject to forced illumination. • 3.x.2—Samples (at solid state) sealed under nitrogen in clear glass bottles, subject to forced illumination. • 3.x.3—Samples (at solid state) sealed under nitrogen in amber glass bottles, illuminated under ambient laboratory conditions • 3.x.4—Samples (at solid state) sealed under nitrogen in amber glass bottles, subject to forced illumination. • 3.x.5—Samples (in solution) sealed under nitrogen in amber glass bottles, illuminated under ambient laboratory conditions. • 3.x.6—Samples (in solution) sealed under nitrogen in amber glass bottles, subject to forced illumination.

[8] = Photostability at solid state (chemical purity by HPLC after illumination); assay type: physicochemical; conditions: solid-state; for degradation (in words): up to 171 hours
Procedure: as §1, §2, §3

[9] = ambient laboratory conditions, 0 hours
[10] = ambient laboratory conditions, 3 hours
[11] = ambient laboratory conditions, 50 hours
[12] = ambient laboratory conditions, 171 hours
[13] = ambient laboratory conditions, 171 hours, listed as Amorphous
[14] = forced illumination, 171 hours, listed as Amorphous
[15] = sealed under nitrogen in amber glass bottles, ambient laboratory conditions, 0 hours
[16] = sealed under nitrogen in amber glass bottles, ambient laboratory conditions, 3 hours
[17] = sealed under nitrogen in amber glass bottles, ambient laboratory conditions, 50 hours
[18] = sealed under nitrogen in amber glass bottles, ambient laboratory conditions, 171 hours
[19] = sealed under nitrogen in amber glass bottles, ambient laboratory conditions, 171 hours, listed as Amorphous
[20] = sealed under nitrogen in amber glass bottles, forced illumination, 0 hours
[21] = sealed under nitrogen in amber glass bottles, forced illumination, 3 hours
[22] = sealed under nitrogen in amber glass bottles, forced illumination, 50 hours
[23] = sealed under nitrogen in amber glass bottles, forced illumination, 171 hours
[24] = sealed under nitrogen in amber glass bottles, forced illumination, 171 hours, listed as Amorphous
[25] = sealed under nitrogen in clear glass bottles, forced illumination
[26] = sealed under nitrogen in clear glass bottles, forced illumination, 0 hours
[27] = sealed under nitrogen in clear glass bottles, forced illumination, 3 hours
[28] = sealed under nitrogen in clear glass bottles, forced illumination, 50 hours
[29] = sealed under nitrogen in clear glass bottles, forced illumination, 171 hours
[30] = unsealed clear glass bottles, forced illumination
[31] = unsealed clear glass bottles, forced illumination, 0 hours
[32] = unsealed clear glass bottles, forced illumination, 3 hours
[33] = unsealed clear glass bottles, forced illumination, 50 hours
[34] = unsealed clear glass bottles, forced illumination, 171 hours

O=C(NO)c1ccc(CNC(=O)c2[nH]c(-c3ccc(O)cc3)cc2-c2ccoc2)cc1 [QTX125, 3-(3-furyl)-N-{4-[(hydroxyamino)carbonyl]benzyl}-5-(4-hydroxyphenyl)-1H-pyrrole-2-carboxamide]
HDAC 6 inhibition (in words) (HDAC 6): highly selective and highly potent | antitumoral efficacy [1]: high antitumoral efficacy | solubility in water [2]: very low solubility | efficacy in multiple sclerosis models [3]: high efficacy | physical and chemical stability in solution [4]: physical and chemical instability | pharmacokinetic properties: half-lives and distribution volumes [5]: higher half-lives and distribution volumes | genotoxicity, in particular clastogenicity or aneugenicity [6]: no evidence of genotoxicity

O=C(NO)c1ccc(CNC(=O)c2[nH]c(-c3ccc(O)cc3)cc2-c2ccoc2)cc1 [amorphous QTX125, 3-(3-Furyl)-N-{4-[(hydroxyamino)carbonyl]benzyl}-5-(4-hydroxyphenyl)-1H-pyrrole-2-carboxamide]
HPLC peak area, QTX125 RRT 1.00 [7, 9]: 96.74% | HPLC peak area, RRT 1.04 [7, 9]: 1.32% | HPLC peak area, RRT 1.12 [7, 9]: 0.35% | HPLC peak area, QTX125 RRT 1.00 [7, 10]: 92.10% | HPLC peak area, RRT 1.04 [7, 10]: 0.94% | HPLC peak area, RRT 1.12 [7, 10]: 0.48% | HPLC peak area, QTX125 RRT 1.00 [7, 11]: 95.89% | HPLC peak area, RRT 1.04 [7, 11]: 1.03% | HPLC peak area, RRT 1.12 [7, 11]: 0.54% | HPLC peak area, QTX125 RRT 1.00 [7, 12]: 91.98% | HPLC peak area, RRT 1.04 [7, 12]: 2.30% | HPLC peak area, RRT 1.12 [7, 12]: 1.14% | HPLC peak area, QTX125 RRT 1.00 [7, 13]: 91.98% | HPLC peak area, RRT 1.04 [7, 13]: 2.30% | HPLC peak area, RRT 1.12 [7, 13]: 1.14% | degradation (in words) ([7]; ambient laboratory conditions): degrades | HPLC peak area, QTX125 RRT 1.00 ([7]; forced illumination, 0 hours): 96.74% | HPLC peak area, RRT 1.04 ([7]; forced illumination, 0 hours): 1.32% | HPLC peak area, RRT 1.12 ([7]; forced illumination, 0 hours): 0.35% | HPLC peak area, QTX125 RRT 1.00 ([7]; forced illumination, 3 hours): 96.31% | HPLC peak area, RRT 1.04 ([7]; forced illumination, 3 hours): 0.92% | HPLC peak area, RRT 1.12 ([7]; forced illumination, 3 hours): 0.46% | HPLC peak area, QTX125 RRT 1.00 ([7]; forced illumination, 50 hours): 94.55% | HPLC peak area, RRT 1.04 ([7]; forced illumination, 50 hours): 1.27% | HPLC peak area, RRT 1.12 ([7]; forced illumination, 50 hours): 0.55% | HPLC peak area, QTX125 RRT 1.00 ([7]; forced illumination, 171 hours): 87.29% | HPLC peak area, RRT 1.04 ([7]; forced illumination, 171 hours): 2.33% | HPLC peak area, RRT 1.12 ([7]; forced illumination, 171 hours): 1.03% | HPLC peak area, QTX125 RRT 1.00 [7, 14]: 87.29% | HPLC peak area, RRT 1.04 [7, 14]: 2.33% | HPLC peak area, RRT 1.12 [7, 14]: 1.03% | degradation (in words) ([7]; forced illumination): degrades | HPLC peak area, QTX125 RRT 1.00 [8, 15]: 96.74% | HPLC peak area, RRT 1.04 [8, 15]: 1.32% | HPLC peak area, RRT 1.12 [8, 15]: 0.35% | HPLC peak area, QTX125 RRT 1.00 [8, 16]: 96.75% | HPLC peak area, RRT 1.04 [8, 16]: 1.26% | HPLC peak area, RRT 1.12 [8, 16]: 0.36% | HPLC peak area, QTX125 RRT 1.00 [8, 17]: 96.61% | HPLC peak area, RRT 1.04 [8, 17]: 0.71% | HPLC peak area, RRT 1.12 [8, 17]: 0.39% | HPLC peak area, QTX125 RRT 1.00 [8, 18]: 96.16% | HPLC peak area, RRT 1.04 [8, 18]: 1.46% | HPLC peak area, RRT 1.12 [8, 18]: 0.39% | HPLC peak area, QTX125 RRT 1.00 [8, 19]: 96.16% | HPLC peak area, RRT 1.04 [8, 19]: 1.46% | degradation (in words) ([8]; sealed under nitrogen in amber glass bottles, ambient laboratory conditions): evidence of slight degradation | HPLC peak area, QTX125 RRT 1.00 [8, 20]: 96.74% | HPLC peak area, RRT 1.04 [8, 20]: 1.32% | HPLC peak area, RRT 1.12 [8, 20]: 0.35% | HPLC peak area, QTX125 RRT 1.00 [8, 21]: 96.94% | HPLC peak area, RRT 1.04 [8, 21]: 1.04% | HPLC peak area, RRT 1.12 [8, 21]: 0.35% | HPLC peak area, QTX125 RRT 1.00 [8, 22]: 96.12% | HPLC peak area, RRT 1.04 [8, 22]: 1.09% | HPLC peak area, RRT 1.12 [8, 22]: 0.38% | HPLC peak area, QTX125 RRT 1.00 [8, 23]: 94.43% | HPLC peak area, RRT 1.04 [8, 23]: 1.70% | HPLC peak area, RRT 1.12 [8, 23]: 0.47% | HPLC peak area, QTX125 RRT 1.00 [8, 24]: 94.43% | HPLC peak area, RRT 1.04 [8, 24]: 1.70% | HPLC peak area, RRT 1.12 [8, 24]: 0.47% | degradation (in words) ([8]; sealed under nitrogen in amber glass bottles, forced illumination): degrades slightly | colour change of the solid material [8, 25]: change in colour from off white/beige to brown | HPLC peak area, QTX125 RRT 1.00 [8, 26]: 96.74% | HPLC peak area, RRT 1.04 [8, 26]: 1.32% | HPLC peak area, RRT 1.12 [8, 26]: 0.35% | HPLC peak area, QTX125 RRT 1.00 [8, 27]: 95.97% | HPLC peak area, RRT 1.04 [8, 27]: 1.51% | HPLC peak area, RRT 1.12 [8, 27]: 0.38% | HPLC peak area, QTX125 RRT 1.00 [8, 28]: 89.64% | HPLC peak area, RRT 1.04 [8, 28]: 4.38% | HPLC peak area, RRT 1.12 [8, 28]: 0.60% | HPLC peak area, QTX125 RRT 1.00 [8, 29]: 84.46% | HPLC peak area, RRT 1.04 [8, 29]: 6.61% | HPLC peak area, RRT 1.12 [8, 29]: 0.90% | degradation (in words) [8, 25]: degrades under forced illumination to two principal components | colour change of the solid material [8, 30]: change in colour from off white/beige to brown | HPLC peak area, QTX125 RRT 1.00 [8, 31]: 96.74% | HPLC peak area, RRT 1.04 [8, 31]: 1.32% | HPLC peak area, RRT 1.12 [8, 31]: 0.35% | HPLC peak area, QTX125 RRT 1.00 [8, 32]: 95.81% | HPLC peak area, RRT 1.04 [8, 32]: 1.61% | HPLC peak area, RRT 1.12 [8, 32]: 0.39% | HPLC peak area, QTX125 RRT 1.00 [8, 33]: 88.70% | HPLC peak area, RRT 1.04 [8, 33]: 4.64% | HPLC peak area, RRT 1.12 [8, 33]: 0.63% | HPLC peak area, QTX125 RRT 1.00 [8, 34]: 83.01% | HPLC peak area, RRT 1.04 [8, 34]: 7.15% | HPLC peak area, RRT 1.12 [8, 34]: 0.90% | degradation (in words) [8, 30]: degrades under forced illumination to two principal components
